Consider eight molecules from US11634451B2, “Method for the site-specific enzymatic labelling of nucleic acids in vitro by incorporation of unnatural nucleotides” (The Scripps Research Institute, priority 2013, dated 2023).

Holding throughout (format): biochemical
Assay [1] addresses T1, Klenow fragment of E. coli DNA polymerase I (Escherichia coli, UniProt P00582).
T1 construct: the Klenow fragment of E. coli DNA polymerase I
In words: Presteady-state kinetics: incorporation of unnatural triphosphate opposite dNaM and extension. The following applies: 2 μM dCTP, 10 s, dXTPs paired with dNaM; for % Incorporation: 40 nM unnatural triphosphate; for % Extension: 10 μM unnatural triphosphate. An excerpt:
Exemplary methods for analyzing unnatural base pair synthesis efficiency (insertion of an unnatural nucleobase opposite its partner in a template) and extension (continued primer elongation) are provided herein. One or both of the nucleobases in an unnatural base pair, in various embodiments, may be a linker-derivatized unnatural nucleobase. One method uses a presteady-state assay. The assay is based on determining, under a fixed set of conditions, the amount of a primer (e.g. 23-mer) that is extended by addition of the unnatural nucleotide opposite its complementary nucleotide in a template (e.g., 45-mer) by a polymerase (e.g., the Klenow fragment of E. coli DNA polymerase I). In this assay, the efficiency of unnatural base pair synthesis is characterized by measuring the percent incorporation (% inc) at a given concentration of the unnatural and next correct triphosphate, for example using a ratio such as [24-mer+25-mer]/[23-mer+24-mer+25-mer]. In this assay, the efficiency of extension is characterized by measuring the percent extension (% ext) at a given concentration of the next correct nucleotide and saturating concentrations of unnatural nucleotide, for example using a ratio [25-mer]/[24-mer+25-mer]. Results from an exemplary presteady-state assay are shown in Table 1, wherein the unnatural triphosphate is 5SICS, FPT1, TPT1, TPT2, TPT3, FTPT3, TPT3^PA, or 5SICS^PA. In some embodiments, the percent incorporation of an unnatural nucleobase is at least 60%, 65%, 70%, 71%, 72%, 73%, 74%, 75%, 76%, 77%, 78%, 79%, 80%, 81%, 82%, 83%, 84%, 85%, 86%, 87%, 88%, 89%, 90%, 91%, 92%, 93%, 94%, 95%, 96%, 97%, 98%, or 99%. In some embodiments, the percent extension of a next correct nucleotide following insertion of an unnatural nucleobase is at least 30%, 31%, 32%, 33%, 34%, 35%, 36%, 37%, 38%, 39%, 40%, 41%, 42%, 43%, 44%, 45%, 46%, 47%, 48%, 49%, 50%, 55%, 60%, 65%, 70%, 75%, 80%, 85%, 90% or greater. In some embodiments, synthesis efficiency is increased by derivatizing the unnatural nucleobase. For example, by the addition of a linker, a protected linker, and/or a linker conjugated to a cargo molecule. As another example, derivatization includes atom substitutions, additions, or deletions. In some embodiments, percent extension is increased by derivatizing the unnatural nucleobase. Derivatization of an unnatural nucleobase, in some instances, increases by at least 1-2 orders of magnitude the efficiency of insertion of the nucleotide complementary to the base pair in the template. This increase in efficiency may be due to an increase kcat and a decreased KM.
^aIncorporation assay conditions: 40 nM unnatural triphosphate, […], 10s. ^bExtension assay conditions: […], 2 μM dCTP, 10 s. dXTPs are paired with dNaM.

In a further assay the target is T2, Taq polymerase (Thermus aquaticus, UniProt P19821).
T2 construct: purchased New England Biolabs (Ipswich, Mass.)
T2 sequence (P19821 whole entry): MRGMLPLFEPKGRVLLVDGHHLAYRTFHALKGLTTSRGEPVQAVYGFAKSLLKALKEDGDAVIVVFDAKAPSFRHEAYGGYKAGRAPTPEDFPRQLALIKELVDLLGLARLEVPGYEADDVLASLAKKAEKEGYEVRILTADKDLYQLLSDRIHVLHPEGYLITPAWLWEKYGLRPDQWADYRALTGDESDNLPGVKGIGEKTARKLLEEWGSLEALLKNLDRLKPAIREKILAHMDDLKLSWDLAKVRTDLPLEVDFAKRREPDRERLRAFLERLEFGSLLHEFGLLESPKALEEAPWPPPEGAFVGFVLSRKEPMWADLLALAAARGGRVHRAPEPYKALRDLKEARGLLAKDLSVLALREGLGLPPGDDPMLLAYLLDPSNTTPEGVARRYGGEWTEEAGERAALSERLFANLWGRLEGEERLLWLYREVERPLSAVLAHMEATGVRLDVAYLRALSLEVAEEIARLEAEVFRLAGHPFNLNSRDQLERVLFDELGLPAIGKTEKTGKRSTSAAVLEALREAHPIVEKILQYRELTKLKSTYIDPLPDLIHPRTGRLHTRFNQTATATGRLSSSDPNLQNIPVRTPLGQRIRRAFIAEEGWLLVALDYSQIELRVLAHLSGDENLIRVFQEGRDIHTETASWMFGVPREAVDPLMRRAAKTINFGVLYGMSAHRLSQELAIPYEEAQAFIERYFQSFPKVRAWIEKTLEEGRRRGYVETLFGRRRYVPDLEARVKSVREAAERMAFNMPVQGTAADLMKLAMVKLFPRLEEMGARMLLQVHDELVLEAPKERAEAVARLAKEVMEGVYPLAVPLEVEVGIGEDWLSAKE
In words: PCR-based screen and amplification of DNA containing unnatural base pairs, Taq (Example 1). The settings on record: Taq, 10 s Extension, 52 cycles, D6 template. As for the experimental part:
(§1) The triphosphates of the 6 group were prepared from the previously reported nucleosides (Kubelka, T., Slavetinska, L., Eigner, V. and Hocek, M. Synthesis of 2,6-disubstituted pyridin-3-yl C-2′-deoxyribonucleosides through chemoselective transformations of bromo-chloropyridine C-nucleosides. Org. Biomol. Chem., 11, 4702-4718) according to Ludwig, J. and Eckstein, F. Rapid and efficient synthesis of nucleoside 5′-0-(1-thiotriphosphates), 5′-triphosphates and 2′,3′-cyclophosphorothioates using 2-chloro-4H-1,3,2-benzodioxaphosphorin-4-one. J. Org. Chem., 54, 631-635. The purity of all other triphosphates was confirmed by MALDI-TOF and UV-VIS. Taq and OneTaq DNA polymerases were purchased from New England Biolabs (Ipswich, Mass.). A mixture of dNTPs was purchased from Fermentas (Glen Burnie, Md.). SYBR Green I Nucleic Acid Gel Stain (10,000×) was purchased from Life Technologies (Carlsbad, Calif.). The synthesis of the DNA templates, D8 (Malyshev, D. A., Dhami, K., Quach, H. T., Lavergne, T., Ordoukhanian, P., Torkamani, A. and Romesberg, F. E. Efficient and sequence-independent replication of DNA containing a third base pair establishes a functional six-letter genetic alphabet. Proc. Natl. Acad. Sci. USA, 109, 12005-12010), used for screening rounds 1-5, and D6 (Malyshev, D. A., Seo, Y. J., Ordoukhanian, P. and Romesberg, F. E. PCR with an expanded genetic alphabet. J. Am. Chem. Soc., 131, 14620-14621), used for all other amplifications, was described previously. Sanger sequencing was carried out as described previously (Malyshev, D. A., Dhami, K., Quach, H. T., Lavergne, T., Ordoukhanian, P., Torkamani, A. and Romesberg, F. E. Efficient and sequence-independent replication of DNA containing a third base pair establishes a functional six-letter genetic alphabet. Proc. Natl. Acad. Sci. USA, 109, 12005-12010). Raw Sanger sequencing traces were used to determine the percent retention of the unnatural base pairs, which was converted to fidelity per doubling, as described (Malyshev, D. A., Dhami, K., Quach, H. T., Lavergne, T., Ordoukhanian, P., Torkamani, A. and Romesberg, F. E. Efficient and sequence-independent replication of DNA containing a third base pair establishes a functional six-letter genetic alphabet. Proc. Natl. Acad. Sci. USA, 109, 12005-12010; Malyshev, D. A., Seo, Y. J., Ordoukhanian, P. and Romesberg, F. E. PCR with an expanded genetic alphabet. J. Am. Chem. Soc., 131, 14620-14621).
(§2) All PCR amplifications were performed in a CFX Connect Real-Time PCR Detection System (Bio-Rad), in a total volume of 25 μL using the following conditions: 1× OneTaq reaction buffer, 0.5× Sybr Green I, MgSO4 adjusted to 4.0 mM, 0.2 mM of each dNTP, 50 μM of each unnatural triphosphate, […] of Primer1 and Primer2 (See Table 2), and 0.02 U/μl of the DNA polymerase. Other conditions specific for each round of screening are described in Table 3. Amplified products were purified using DNA Clean and Concentrator-5 spin columns from Zymo Research (Irvine, Calif.). After purification, the PCR products were sequenced on a 3730 DNA Analyzer (Applied Biosystems) to determine the retention of the unnatural base pair as described below. Fidelity was characterized from unnatural base pair (UBP) retention as determined by sequencing with Primer1 on a 3730 DNA Analyzer (Applied Biosystems).
(§3) Specific PCR assay conditions. PCR with the most promising UBPs was carried out with the conditions as described in Table 3. PCR products were further purified on […] gels, followed by single band excision and subsequent clean up using the Zymo Research Zymoclean Gel DNA Recovery Kit. After elution with 20 μl of water, the DNA concentration was measured using fluorescent dye binding (Quant-iT dsDNA HS Assay kit, Life Technologies), and purified amplicons were sequenced in triplicate with both Primer1 and Primer2 to determine UBP retention and thus amplification fidelity. […]

Another assay has as its system OneTaq polymerase. Kind of assay: PCR-based screen and amplification of DNA containing unnatural base pairs, OneTaq (Example 1). The settings on record: OneTaq, 1 min Extension, 52 cycles, D6 template. The protocol:
as §1, §2, §3

Each structure is given as a SMILES string. Marks after values point to notes of the source that are not given here. Where only a bound is given, the exact number is not on record here.

T1 sequence (P00582 324-928): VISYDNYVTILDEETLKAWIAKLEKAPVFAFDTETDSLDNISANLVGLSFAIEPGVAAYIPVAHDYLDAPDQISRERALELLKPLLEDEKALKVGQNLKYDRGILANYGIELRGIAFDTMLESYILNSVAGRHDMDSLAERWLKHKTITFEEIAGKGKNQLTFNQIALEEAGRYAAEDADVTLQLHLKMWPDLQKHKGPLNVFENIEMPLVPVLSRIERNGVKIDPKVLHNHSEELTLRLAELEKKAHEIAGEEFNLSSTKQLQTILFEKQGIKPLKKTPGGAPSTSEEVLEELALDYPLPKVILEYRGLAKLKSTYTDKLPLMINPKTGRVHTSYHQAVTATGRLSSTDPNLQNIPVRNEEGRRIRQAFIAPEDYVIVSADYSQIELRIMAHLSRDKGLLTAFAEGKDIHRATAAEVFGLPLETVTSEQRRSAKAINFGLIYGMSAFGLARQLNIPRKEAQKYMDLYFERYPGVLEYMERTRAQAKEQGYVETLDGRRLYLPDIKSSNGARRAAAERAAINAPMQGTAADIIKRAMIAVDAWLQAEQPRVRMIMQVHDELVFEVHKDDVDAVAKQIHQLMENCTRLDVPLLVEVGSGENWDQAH

Take `Cc1cc2ccn([C@H]3C[C@H](O)[C@@H](COP(=O)(O)OP(=O)(O)OP(=O)(O)O)O3)c(=S)c2s1` [TPT2]: in assay [1], the “% Incorporation” value is reported as 65.7 ± 0.5% and the “% Extension” value is 34.5 ± 0.5%.

For the molecule `Cc1cc2c(=S)n([C@H]3C[C@H](O)[C@@H](COP(=O)(O)OP(=O)(O)OP(=O)(O)O)O3)ccc2s1` [TPT1], in assay [1], the “% Incorporation” value was 28.7 ± 0.5% and the “% Extension” value was 8.8 ± 0.2%.

On to `C#Cc1cc(OC)c([C@H]2C[C@H](O)[C@@H](COP(=O)(O)OP(=O)(O)OP(=O)(O)O)O2)cc1F.O=P(O)(O)OP(=O)(O)OP(=O)(O)OC[C@H]1O[C@@H](n2ccc3ccsc3c2=S)C[C@@H]1O` [TPT3-FEMO], for which, on Taq polymerase, the “Amplification, ×10^12” value is reported as 5.0 ×10^12; the “Fidelity per Doubling, %” value stood at 99.44 ± 0.09%; the “Retention, %” value is 79 ± 3%. In the assay with OneTaq polymerase, the “Amplification, ×10^12” value is reported as 10.4 ×10^12; the “Fidelity per Doubling, %” value is recorded as 99.55 ± 0.03%; the “Retention, %” value stood at 82.2 ± 1.0%.

As for `Cc1cc2c(=S)n([C@H]3C[C@H](O)[C@@H](COP(=O)(O)OP(=O)(O)OP(=O)(O)O)O3)ccc2o1` [FPT1], in assay [1], the “% Incorporation” value came out at 7.2 ± 0.2% and the “% Extension” value is recorded as 32.0 ± 1.5%.

`O=P(O)(O)OP(=O)(O)OP(=O)(O)OC[C@H]1O[C@@H](n2cc(F)c3ccsc3c2=S)C[C@@H]1O` [FTPT3]: in assay [1], the “% Incorporation” value came to 66.3 ± 0.5% and the “% Extension” value is reported as 33.8 ± 0.2%.

For `COc1cc(I)c(F)cc1[C@H]1C[C@H](O)[C@@H](COP(=O)(O)OP(=O)(O)OP(=O)(O)O)O1.O=P(O)(O)OP(=O)(O)OP(=O)(O)OC[C@H]1O[C@@H](n2ccc3ccsc3c2=S)C[C@@H]1O` [TPT3-FIMO], on Taq polymerase, the “Amplification, ×10^12” value is given as 8.5 ×10^12; the “Fidelity per Doubling, %” value stood at 99.60 ± 0.09%; the “Retention, %” value was determined as 84 ± 3%. In the assay with OneTaq polymerase, the “Amplification, ×10^12” value is 8.7 ×10^12; the “Fidelity per Doubling, %” value was 99.61 ± 0.03%; the “Retention, %” value is on record as 84.7 ± 1.1%.

In the case of `C#Cc1cc(OC)c([C@H]2C[C@H](O)[C@@H](COP(=O)(O)OP(=O)(O)OP(=O)(O)O)O2)cc1F.O=P(O)(O)OP(=O)(O)OP(=O)(O)OC[C@H]1O[C@@H](n2cc(F)c3ccsc3c2=S)C[C@@H]1O` [FTPT3-FEMO], at Taq polymerase, the “Amplification, ×10^12” value is 5.7 ×10^12; the “Fidelity per Doubling, %” value worked out at 99.51 ± 0.11%; the “Retention, %” value was 81 ± 4%. In addition, in the assay with OneTaq polymerase, the “Amplification, ×10^12” value was 6.3 ×10^12; the “Fidelity per Doubling, %” value turned out to be 99.24 ± 0.04%; the “Retention, %” value stood at 72.4 ± 1.4%.

For `COc1cc2ccccc2cc1[C@H]1C[C@H](O)[C@@H](COP(=O)(O)OP(=O)(O)OP(=O)(O)O)O1.Cc1ccc2c(=S)n([C@H]3C[C@H](O)[C@@H](COP(=O)(O)OP(=O)(O)OP(=O)(O)O)O3)ccc2c1` [5SICS-NaM, reference compound], on Taq polymerase, the “Amplification, ×10^12” value is 9.3 ×10^12; the “Fidelity per Doubling, %” value was <85^b %; the “Retention, %” value is reported as <50^b %. Moreover, in the assay on OneTaq polymerase, the “Amplification, ×10^12” value is 8.1 ×10^12; the “Fidelity per Doubling, %” value turned out to be 99.00 ± 0.02%; the “Retention, %” value amounted to 77.1 ± 0.7%.
